Reference: ChEMBL document CHEMBL5500391, “Systematic Structural Modification of Squaraine Dye for Near-Infrared Window One and Two Multiplexed In Vivo Imaging and Photothermal Therapy” (J Med Chem, 2024)
Activity calls are given as the source filed them. The calls are words filed in the database; no cut-off is given here.

Experiments:
[1] = Drug metabolism in Balb/c mouse liver administered as iv dose by NIR-II fluorescence imaging analysis; format: ADME, organism-based; conditions: in vivo
[2] = Toxicity in BALB/c mouse assessed as effect on lung at 6.84 ug, IG measured after 14 days by H and E staining based analysis; format: tissue-based; conditions: in vivo, po, 336 h, dose 6.84 µg, time 14 day
[3] = Toxicity in BALB/c mouse assessed as effect on kidney at 6.84 ug, IG pretreated with compound for 2 hrs followed by laser irradiation at 808nm 1.0 W/cm2 for 5 mins and measured after 14 days by H and E staining based analysis; format: tissue-based; conditions: in vivo, po, 336 h, dose 6.84 µg, time 14 day
[4] = Toxicity in BALB/c mouse assessed as effect on lung at 6.84 ug, IG pretreated with compound for 2 hrs followed by laser irradiation at 808nm 1.0 W/cm2 for 5 mins and measured after 14 days by H and E staining based analysis; format: tissue-based; conditions: in vivo, po, 336 h, dose 6.84 µg, time 14 day
4T1 [5] = assay: Induction of intracellular ROS generation in mouse 4T1 cells preincubated with compound followed by laser irradiation at 808nm 1.0 W/cm2 by DCFDA staining based analysis; format: functional, cell-based
[6] = Toxicity in BALB/c mouse assessed as creatinine level in serum measured after 7 to 14 days by biochemical analysis; conditions: time 7-14 day
4T1 [7] = assay: Antitumor activity against mouse 4T1 cells xenografted in BALB/c mouse model assessed as increase in tumor temperature at 6.84 ug, IG pretreated with compound for 2 hrs followed by laser irradiation at 808nm 1.0 W/cm2 for 5 mins (reference value: 34 degreeC); format: functional; conditions: dose 6.84 µg, time 125 min, 2.083 h
[8] = Toxicity in BALB/c mouse assessed as effect on heart at 6.84 ug, IG pretreated with compound for 2 hrs followed by laser irradiation at 808nm 1.0 W/cm2 for 5 mins and measured after 14 days by H and E staining based analysis; format: tissue-based; conditions: in vivo, po, 336 h, dose 6.84 µg, time 14 day
[9] = Drug uptake in mouse 4T1 cells assessed as increase in fluorescence measured upto 12 hrs by NIR-II fluorescence microscopic analysis; format: ADME, cell-based; conditions: 4t1, 12 h
[10] = Toxicity in BALB/c mouse assessed as ALB level in serum measured after 7 to 14 days by biochemical analysis; conditions: time 7-14 day
[11] = Toxicity in BALB/c mouse assessed as effect on tumor at 6.84 ug, IG measured after 14 days by H and E staining based analysis; conditions: in vivo, po, 336 h, dose 6.84 µg, time 14 day
[12] = Toxicity in BALB/c mouse assessed as effect on body weight at 6.84 ug, IG pretreated with compound for 2 hrs followed by laser irradiation at 808nm 1.0 W/cm2 for 5 mins and measured every two days for 14 days; conditions: in vivo, po, 336 h, dose 6.84 µg, time 14 day
4T1 [13] = assay: Antitumor activity against mouse 4T1 cells xenografted in BALB/c mouse model assessed as induction of apoptosis at 6.84 ug, IG pretreated with compound for 2 hrs followed by laser irradiation at 808nm 1.0 W/cm2 for 5 mins and measured every two days for 14 days by TUNEL assay; format: functional; conditions: dose 6.84 µg, time 14.0 day
4T1 [14] = assay: Cytotoxicity in mouse 4T1 cells at upto 100 uM incubated for 24 hrs by CCK-8 method; format: functional, cell-based
[15] = Toxicity in BALB/c mouse assessed as effect on spleen at 6.84 ug, IG pretreated with compound for 2 hrs followed by laser irradiation at 808nm 1.0 W/cm2 for 5 mins and measured after 14 days by H and E staining based analysis; format: tissue-based; conditions: in vivo, po, 336 h, dose 6.84 µg, time 14 day
4T1 [16] = assay: Cytotoxicity in mouse 4T1 cells assessed as increase in red fluorescence at 100 uM incubated for 12 hrs by Calcein-AM and PI staining based fluorescence microscopy analysis; format: functional, cell-based
[17] = Toxicity in BALB/c mouse assessed as effect on liver at 6.84 ug, IG measured after 14 days by H and E staining based analysis; format: tissue-based; conditions: in vivo, po, 336 h, dose 6.84 µg, time 14 day
4T1 [18] = assay: Antitumor activity against mouse 4T1 cells xenografted in BALB/c mouse model assessed as induction of apoptosis at 6.84 ug, IG measured every two days for 14 days by TUNEL assay; format: functional; conditions: dose 6.84 µg, time 14.0 day
4T1 [19] = assay: Cytotoxicity in mouse 4T1 cells assessed as decrease in cell survival at 75 uM incubated for 24 hrs under laser irradiation by CCK-8 method; format: functional, cell-based
4T1 [20] = assay: Antitumor activity against mouse 4T1 cells xenografted in BALB/c mouse model assessed as suppression of tumor at 6.84 ug, IG pretreated with compound for 2 hrs followed by laser irradiation at 808nm 1.0 W/cm2 for 5 mins and measured every two days for 14 days by vernier caliper analysis; format: functional; conditions: dose 6.84 µg, time 14.0 day
[21] = Toxicity in BALB/c mouse assessed as ALT level in serum measured after 7 to 14 days by biochemical analysis; conditions: time 7-14 day
[22] = Toxicity in BALB/c mouse assessed as effect on kidney at 6.84 ug, IG measured after 14 days by H and E staining based analysis; format: tissue-based; conditions: in vivo, po, 336 h, dose 6.84 µg, time 14 day
[23] = Toxicity in BALB/c mouse assessed as effect on liver measured after 24 hrs by real-time NIR-II fluorescence imaging analysis; format: tissue-based; conditions: in vivo
[24] = Toxicity in BALB/c mouse assessed as effect on spleen at 6.84 ug, IG measured after 14 days by H and E staining based analysis; format: tissue-based; conditions: in vivo, po, 336 h, dose 6.84 µg, time 14 day
NIH3T3 = assay: Cytotoxicity in mouse 3T3 cells at upto 100 uM incubated for 24 hrs by CCK-8 method; format: toxicity, cell-based; conditions: nih3t3, 24 h
[25] = Toxicity in BALB/c mouse assessed as UREA level in serum measured after 7 to 14 days by biochemical analysis; conditions: time 7-14 day
[26] = Toxicity in BALB/c mouse assessed as effect on body weight at 6.84 ug, IG measured every two days for 14 days; conditions: in vivo, po, 336 h, dose 6.84 µg, time 14 day
[27] = Drug excretion in Balb/c mouse liver administered as iv dose measured after 12 hrs by NIR-II fluorescence imaging analysis; format: ADME, organism-based; conditions: in vivo
[28] = Toxicity in BALB/c mouse assessed as effect on tumor at 6.84 ug, IG pretreated with compound for 2 hrs followed by laser irradiation at 808nm 1.0 W/cm2 for 5 mins and measured after 14 days by H and E staining based analysis; conditions: in vivo, po, 336 h, dose 6.84 µg, time 14 day
[29] = Toxicity in BALB/c mouse assessed as effect on liver at 6.84 ug, IG pretreated with compound for 2 hrs followed by laser irradiation at 808nm 1.0 W/cm2 for 5 mins and measured after 14 days by H and E staining based analysis; format: tissue-based; conditions: in vivo, po, 336 h, dose 6.84 µg, time 14 day
[30] = Toxicity in BALB/c mouse assessed as effect on lung measured after 24 hrs by real-time NIR-II fluorescence imaging analysis; format: tissue-based; conditions: in vivo
[31] = Toxicity in BALB/c mouse assessed as effect on heart at 6.84 ug, IG measured after 14 days by H and E staining based analysis; format: tissue-based; conditions: in vivo, po, 336 h, dose 6.84 µg, time 14 day
[32] = Toxicity in BALB/c mouse assessed as AST level in serum measured after 7 to 14 days by biochemical analysis; conditions: time 7-14 day
[33] = Toxicity in BALB/c mouse assessed as effect on kidney measured after 24 hrs by real-time NIR-II fluorescence imaging analysis; format: tissue-based; conditions: in vivo
[34] = Toxicity in BALB/c mouse assessed as effect on spleen measured after 24 hrs by real-time NIR-II fluorescence imaging analysis; format: tissue-based; conditions: in vivo
[35] = Toxicity in BALB/c mouse assessed as effect on heart measured after 24 hrs by real-time NIR-II fluorescence imaging analysis; format: tissue-based; conditions: in vivo
4T1 [36] = assay: Cytotoxicity in mouse 4T1 cells assessed as increase in red fluorescence at 100 uM incubated for 12 hrs followed by 808nm laser irradiation for 5 mins and measured after 12 hrs by Calcein-AM and PI staining based fluorescence microscopy analysis; format: functional, cell-based; conditions: time 1445.0 min
[37] = Drug uptake in mouse Lymph node at 769/48nm long pass by fluorescence imaging based analysis; format: ADME, tissue-based; conditions: in vivo
[38] = Drug uptake in mouse Lymph node at 1000 long pass by fluorescence imaging based analysis; format: ADME, tissue-based; conditions: in vivo
[39] = Drug uptake in mouse Lymph node at 655/24nm band pass by fluorescence imaging based analysis; format: ADME, tissue-based; conditions: in vivo

O=C1C(/C=c2\c3cccc4cccc(c43)n2CCCCS(=O)(=O)O)=C([O-])C/1=C/C1=[N+](CCCCS(=O)(=O)O)c2cccc3cccc1c23
Drug metabolism [1]: Metabolite_Detected | Activity [2]: Non-Toxic | Activity [3]: Non-Toxic | Activity [4]: Non-Toxic | Activity (4T1 [5]): inactive | Activity [6]: Non-Toxic | T (4T1 [7]): 54 °C | Activity [8]: Non-Toxic | Drug uptake [9]: Active | Activity [10]: Non-Toxic | Activity [11]: Non-Toxic | Activity [12]: Non-Toxic | Activity (4T1 [13]): Active | Activity (4T1 [14]): inactive | Activity [15]: Non-Toxic | Activity (4T1 [16]): inactive | Activity [17]: Non-Toxic | Activity (4T1 [18]): Active | Activity (4T1 [19]): Active | Activity (4T1 [20]): Active | Activity [21]: Non-Toxic | Activity [22]: Non-Toxic | Activity [23]: Non-Toxic | Activity [24]: Non-Toxic | Activity (NIH3T3): Non-Toxic | Activity [25]: Non-Toxic | Activity [26]: Non-Toxic | Drug excretion [27]: Active | Activity [28]: Non-Toxic | Activity [29]: Non-Toxic | Activity [30]: Non-Toxic | Activity [31]: Non-Toxic | Activity [32]: Non-Toxic | Activity [33]: Non-Toxic | Activity [34]: Non-Toxic | Activity [35]: Non-Toxic | Activity (4T1 [36]): Active

CCN1/C(=C/C2=C([O-])C(=C/C3=[N+](CC)c4ccc5ccccc5c4C3(C)C)/C2=O)C(C)(C)c2c1ccc1ccccc21
Drug uptake [37]: Active

CCn1/c(=C/C2=C([O-])C(=C/C3=[N+](CC)c4cccc5cccc3c45)/C2=O)c2cccc3cccc1c32
Drug uptake [38]: Active

CCN1/C(=C/C2=C([O-])C(=C/C3=[N+](CC)c4ccccc4C3(C)C)/C2=O)C(C)(C)c2ccccc21
Drug uptake [39]: Active
